In patent US6602905B1, “N-acyl homoserine lactones for the treatment of cardiac tachyarrhythmias, ischaemic heart disease or congestive heart failure” (The University of Nottingham, priority 1999, dated 2003):

Experiments:
[1] = test system: Male rats (Long Evans); experiment: Cardiovascular variables in conscious rats after cardiac autonomic blockade with atenolol + atropine; format: in vivo, rat; settings: 10 mg per kg i.v. after earlier administration of atenolol and atropine
Method: (§1) Male rats (Long Evans) of body mass in the range of from 350 to 450 g were used in the experiments.
(§2) The rats were instrumented with probes to monitor blood flow in renal, mesenteric and hindquarters vascular beds and with catheters to measure blood pressure and heart rate and to administer substances intravenously.
(§3) Measurements of the cardiovascular variables were made in the test rats which were conscious and able to move freely during the duration of the test procedure (10 minutes). The raw data were sampled (every 2 ms), averages were calculated (per cardiac cycle) and the data was stored to diskette (every 5 s). The stored data was analysed off line.
The following substances were administered intravenously to the test rats.
1) As in 2) in Experiment I above (∘)
2) Atenolol +atropine then as in 2) in Experiment I above (●).

[2] = test system: Male rats (Long Evans); experiment: Cardiovascular variables in conscious, freely moving instrumented rats after intravenous injection; format: in vivo, rat; settings: vs vehicle; for effect on the heart rate / effect on the mean arterial blood pressure: 10 mg per kg body weight i.v. in acetonitrile/dextrose
Method: as §1, §2, §3
The following substances were administered by intravenous injection to the test rats.
1) vehicle only (100 μl of 50:50 acetonitrile:dextrose)
2) 10 mg per kg body weight of N-(3-oxododecanoyl)homoserine lactone (OdDHL; Formula I; n=2, Y=X=O, R=3-oxododecanoyl). The OdDHL was dissolved in acetonitrile/dextrose (50 μl:50 μl) 100 μl.
3) vehicle only (100 μl of 50:50 acetonitrile:dextrose)
4) 10 mg per kg body weight of N-(3-oxoundecanoyl)homoserine lactone (OuDHL; Formula I; n=2, Y=X=O, R=3-oxoundecanoyl).
The OuDHL was dissolved in acetonitrile/dextrose (50 μl:50 μl) 100 μl.

Structure (SMILES) | bradycardia (heart rate) after cardiac autonomic blockade [1] | effect on the heart rate [2] | effect on the mean arterial blood pressure [2] | blood flow, particularly in the mesenteric and hindquarters ([2]; 10 mg per kg body weight i.v.)
CCCCCCCCCC(=O)CC(=O)N[C@H]1CCOC1=O [OdDHL, N-(3-oxododecanoyl)homoserine lactone] | not observed | profound bradycardia | substantially no change | reduced
CCCCCCCCC(=O)CC(=O)NC1CCOC1=O (stereo not drawn) [OuDHL, N-(3-oxoundecanoyl)homoserine lactone] | – | marked bradycardia | substantially no change | –
